# Results published in US20200405697A1, “Antitumor Agent” (Taiho Pharmaceutical Co., Ltd, priority 2017, published 2020).
# How the values were obtained:
# MV-4-11 = assay: Antitumor effect in human-derived blood cancer cell line (MV-4-11) subcutaneous transplantation model (in vivo); design: species or system nude mouse (BALB/cA Jcl-nu/nu); details: oral, 100 mg/kg/day once per day for 14 days; RTV vs control group, Student-t test, p<0.05
# Protocol: A human-derived blood cancer cell line MV-4-11 was transplanted subcutaneously into a nude mouse (BALB/cA Jcl-nu/nu, CLEA Japan, Inc.), and at the time when the tumor volume of the nude mouse on which the engrafted tumor reached 100 to 300 mm^3, four mice were assigned to each group by random stratification so that the average of the tumor volumes of each group was uniform (day 0), and the Example compound was orally administered daily at 100 mg/kg/day once per day for 14 days. Example Compound dosing solutions were prepared using 0.5% HPMC.
# An electric balance for animals was used in body weight measurement. Rate of change in body weight on day n (BWCn) from body weight on day n (BWn) was calculated according to the following equation.
# Rate of change in body weight BWCn (%)=(BWn−BW0)/BW0×100
# Tumor volume (TV) was calculated according to the following equation by sandwiching and measuring the major axis and the minor axis with a digital caliper.
# Tumor volume (mm^3)=Major axis (mm)×Minor axis (mm)×Minor axis (mm)/2
# In order to compare the chronological transition of proliferation of tumor for the administration of each compound, relative tumor volume (RTV) setting the tumor volume at the time of grouping as 1 as the tumor proliferation rate was calculated according to the following formula, and the transition of the average value of RTV of each individual are shown in FIGS. 1 to 4.
# RTV=(tumor volume at the day of tumor volume measurement)/(tumor volume at the time of the grouping)
# [1] = molecular target: T1, human RNR (histidine tagged human M1 and human M2 proteins) (Homo sapiens, UniProt P23921); assay: Human RNR inhibition effect (dCDP formation from CDP); type: biochemical; details: 10 μM CDP, 37° C. for 30 minutes, read-out: RNR inhibitory activity IC50
# T1 construct: made in house; host or cells: Escherichia coli
# T1 sequence (P23921 1-792): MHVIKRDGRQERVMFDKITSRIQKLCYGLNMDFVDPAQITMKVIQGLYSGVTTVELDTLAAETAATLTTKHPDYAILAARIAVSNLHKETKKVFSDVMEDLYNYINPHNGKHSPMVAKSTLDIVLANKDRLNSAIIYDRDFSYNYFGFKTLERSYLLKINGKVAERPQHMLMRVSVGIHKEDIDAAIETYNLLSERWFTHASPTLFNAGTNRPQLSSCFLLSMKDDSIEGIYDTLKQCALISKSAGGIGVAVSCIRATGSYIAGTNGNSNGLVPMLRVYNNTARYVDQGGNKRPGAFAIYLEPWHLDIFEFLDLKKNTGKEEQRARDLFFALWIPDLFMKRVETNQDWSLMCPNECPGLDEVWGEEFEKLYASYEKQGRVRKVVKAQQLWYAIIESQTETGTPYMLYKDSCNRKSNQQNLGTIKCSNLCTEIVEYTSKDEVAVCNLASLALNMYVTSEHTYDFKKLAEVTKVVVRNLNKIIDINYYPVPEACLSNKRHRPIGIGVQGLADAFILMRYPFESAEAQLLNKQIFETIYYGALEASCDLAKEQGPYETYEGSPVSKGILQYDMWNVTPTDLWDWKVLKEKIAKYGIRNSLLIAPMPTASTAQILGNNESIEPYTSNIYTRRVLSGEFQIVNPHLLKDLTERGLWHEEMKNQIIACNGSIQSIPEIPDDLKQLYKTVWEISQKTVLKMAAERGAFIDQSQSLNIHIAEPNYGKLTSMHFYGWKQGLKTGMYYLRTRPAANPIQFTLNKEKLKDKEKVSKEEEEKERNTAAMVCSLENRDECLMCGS
# Summary of the method: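 His-tagged human M1 (isoform 1) and N-terminal 59-aa-truncated M2 (isoform 2), E. coli-expressed, Ni-purified, preincubated 20 min with compound (1% DMSO). Reaction with 10 μM CDP, 2 mM ATP, 0.24 mM NADPH, 6 mM DTT, 4 mM Mg acetate, 100 mM KCl, 50 mM HEPES pH 7.2, 30 min at 37° C. dCDP formed quantified by reverse-phase HPLC after heat stop.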
# HCC 1806 cells = assay: Cell proliferation inhibitory effect on human breast cancer cell line; type: cell-based; details: HCC1806, 72 h, crystal violet, read-out: Cell growth suppression IC50
# Protocol: Human derived breast cancer cell line HCC 1806 cells (American Type Culture Collection, ATCC) were daily passaged at a cell density not exceeding 80% in ATCC recommended Roswell Park Memorial Institute medium (RPMI-1640) containing 10% fetal bovine serum (FBS). In order to start the test of cell proliferation inhibitory activity, HCC 1806 cells were suspended in the above medium, after seeing at 180 μL in each well of a 96-well flat bottom plate so that the number of cells per well was 2,000, the cells were cultured at 37° C. for 1 day in an incubator containing 5% carbon dioxide gas.
# On the next day, the Example compound was dissolved in DMSO, and 20 μL of a drug additive solution diluted serially with distilled water to 10 times of the final concentration was added to each well of the culture plate of the cells, and the cells were cultured at 37° C. for 72 hours in an incubator containing 5% carbon dioxide gas. After culturing for 72 hours, 20 μL of glutaraldehyde was added to each well and allowed to stand for 30 minutes, then the plate was washed 10 times with water and was dried. 100 μL of a stain solution (0.05% crystal violet in a 20% methanol solution) was added to each well and allowed to stand for 30 minutes, then the plate was washed 10 times with water and was dried. 100 μL of an extract solution (0.1 N NaH2PO4: 100% ethanol=1:1) was added to each well and mixed, and the mixture was measured at a wavelength of 540 nm using a plate reader (MTP-450 manufactured by Corona Electric Co., Ltd.).
# The growth inhibition rate was calculated from the following formula, and the concentration (IC50 (μM)) of a compound inhibiting 50% was determined.
# Growth inhibition rate (%){(C-B)−(T-B)}(C-B)×100
# T: Absorbance of well to which Example compound was added
# C: Absorbance of wells to which no Example compound was added
# B: Absorbance of wells to which no cell was added
# [2] = test system: A549 (Human lung cancer cell line); assay: Effect of combination of sulfonamide compound and other antitumor agent (CellTiter-Glo, combination index): A549
# Protocol: (§1) Each cell line was seeded at 90 L/well to a 96-well culture plate (Thermo Fisher Scientific, Inc.) according to the above tables. The cell-seeded plate was cultured in an incubator set to 37° C. and 500 CO2. On the day following seeding, varying concentrations of the sulfonamide compound and the other antitumor agent were added in combination to the cells. […] The serial dilutions of each compound, or DW was added at 5μL/well to the plate such that each compound and DW, or the sulfonamide compound and the other antitumor agent were combined. […] The plate after the addition was cultured at 37° C. for 3 days under 5% CO2 conditions.
# (§2) Three days later, CellTiter-Glo(R) 2.0 Reagent (Promega Corporation) was added at 100 μL/well, and the amount of luminescence was measured using a plate reader EnSpire(R) Multimode Plate Reader (PerkinElmer Co., Ltd.).
# (§3) An average value from 3 wells was calculated as to each drug condition from the obtained data, and cell survival rate normalized against control wells supplemented with the vehicle (DW) was calculated. A Fa (fractional inhibition) value was calculated by subtracting the cell survival rate from 1.
# [3] = test system: CFPAC-1 (Human pancreatic cancer cell line); assay: Effect of combination of sulfonamide compound and other antitumor agent (CellTiter-Glo, combination index): CFPAC-1;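 note: cells exposed to both agents together for 3 days, viability read by luminescence, normalized to vehicle-treated control wells, mean of triplicate wells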
# Protocol: as §1, §2, §3
# [4] = test system: HCT116 (Human large intestine cancer cell line); assay: Effect of combination of sulfonamide compound and other antitumor agent (CellTiter-Glo, combination index): HCT116; type: cell-based
# Protocol: as §1, §2, §3
# [5] = Example Compound 14 874 nM + Prexasertib 1.97 nM
# [6] = Example Compound 14 1310 nM + Prexasertib 2.96 nM
# [7] = Example Compound 14 1970 nM + Prexasertib 4.45 nM
# [8] = Example Compound 209A 188 nM + Prexasertib 1.97 nM
# [9] = Example Compound 209A 282 nM + Prexasertib 2.96 nM
# [10] = Example Compound 235A 231 nM + Prexasertib 1.97 nM
# [11] = Example Compound 235A 346 nM + Prexasertib 2.96 nM
# [12] = Example Compound 235A 520 nM + Prexasertib 4.44 nM
# [13] = Example Compound 5 311 nM + Prexasertib 1.89 nM
# [14] = Example Compound 5 466 nM + Prexasertib 2.84 nM
# [15] = Example Compound 5 700 nM + Prexasertib 4.26 nM
# [16] = Example Compound 14 616 nM + Prexasertib 1.89 nM
# [17] = Example Compound 14 925 nM + Prexasertib 2.84 nM
# [18] = Example Compound 14 1390 nM + Prexasertib 4.27 nM
# [19] = Example Compound 209A 151 nM + Prexasertib 1.90 nM
# [20] = Example Compound 209A 226 nM + Prexasertib 2.84 nM
# [21] = Example Compound 235A 214 nM + Prexasertib 1.89 nM
# [22] = Example Compound 235A 321 nM + Prexasertib 2.84 nM
# [23] = Example Compound 235A 481 nM + Prexasertib 4.26 nM
# [24] = Example Compound 5 567 nM + Prexasertib 10.7 nM
# [25] = Example Compound 5 851 nM + Prexasertib 16.1 nM
# [26] = Example Compound 14 1000 nM + Prexasertib 7.14 nM
# [27] = Example Compound 14 1500 nM + Prexasertib 10.7 nM
# [28] = Example Compound 14 2250 nM + Prexasertib 16.1 nM
# [29] = Example Compound 209A 187 nM + Prexasertib 7.13 nM
# [30] = Example Compound 209A 281 nM + Prexasertib 10.7 nM
# [31] = Example Compound 209A 421 nM + Prexasertib 16.1 nM
# [32] = HCT116, Example Compound 235A 317 nM combined with Prexasertib 7.15 nM, molar ratio 1:0.02255
# [33] = HCT116, Example Compound 235A 475 nM combined with Prexasertib 10.7 nM, molar ratio 1:0.02255
# [34] = HCT116, Example Compound 235A 712 nM combined with Prexasertib 16.1 nM, molar ratio 1:0.02255
smiles,measurement,setting,value
"Cc1c(Cl)ccc(F)c1[C@@H](C)[C@H](NS(=O)(=O)c1ccc(Cl)c2c1OCCC2(C)O)c1n[nH]c(=O)o1 (single isomer, unassigned) [Example 209A]","antitumor effect (relative tumor volume, RTV)",MV-4-11,antitumor effect
same,IC50,[1],100 nM
"Cc1c(Br)ccc(F)c1[C@@H](C)[C@H](NS(=O)(=O)c1ccc(Cl)c2c1OCCC2(C)O)c1n[nH]c(=O)o1 (single isomer, unassigned) [Example 222A]","antitumor effect (relative tumor volume, RTV)",MV-4-11,antitumor effect
same,IC50,[1],80 nM
"Cc1c(Cl)ccc(F)c1[C@@H](C)[C@H](NS(=O)(=O)c1ccc(Cl)c2c1OCCC2(C)O)c1n[nH]c(=O)o1 (single isomer, unassigned) [Example 228A]","antitumor effect (relative tumor volume, RTV)",MV-4-11,antitumor effect
"[2H]C([2H])([2H])C1(O)CCOc2c(S(=O)(=O)N[C@H](c3n[nH]c(=O)o3)[C@H](C)c3c(F)ccc(Cl)c3C)ccc(Cl)c21 (single isomer, unassigned) [Example 228A]",IC50,HCC 1806 cells,140 nM
same,IC50,[1],80 nM
"Cc1ccc(F)c([C@@H](C)[C@H](NS(=O)(=O)c2ccc(Cl)c3c2OCCC3O)c2n[nH]c(=O)o2)c1C (single isomer, unassigned) [Example 235A]","antitumor effect (relative tumor volume, RTV)",MV-4-11,antitumor effect
same,IC50,[1],80 nM
"Cc1c(Cl)ccc(F)c1[C@@H](C)[C@H](NS(=O)(=O)c1ccc(Cl)cc1C(N)=O)c1n[nH]c(=O)o1 [Example 14, 5-chloro-2-(N-((1S,2R)-2-(3-chloro-6-fluoro-2-methylphenyl)-1-(5-oxo-4,5-dihydro-1,3,4-oxadiazol-2-yl)propyl)sulfamoyl)benzamide]","antitumor effect (relative tumor volume, RTV)",MV-4-11,antitumor effect
same,IC50,[1],250 nM
"CC(=O)OC1(C)CCOc2c(S(=O)(=O)N[C@H](c3n[nH]c(=O)o3)[C@H](C)c3c(F)ccc(C)c3C)ccc(Cl)c21 (stereo partly drawn) [Example 95, 5-chloro-8-(N-((1S,2R)-2-(6-fluoro-2,3-dimethylphenyl)-1-(5-oxo-4,5-dihydro-1,3,4-oxadiazol-2-yl)propyl)sulfamoyl)-4-methylchroman-4-ylacetate]",IC50,HCC 1806 cells,140 nM
same,IC50,[1],140 nM
"COc1cccc(OCCCN)c1-c1cc(Nc2cnc(C#N)cn2)n[nH]1 [Prexasertib, prexasertib]",CI value,[2]; [5],0.277
same,Fa value,[2]; [5],0.4973
same,CI value,[2]; [6],0.193
same,Fa value,[2]; [6],0.7864
same,CI value,[2]; [7],0.177
same,Fa value,[2]; [7],0.8986
same,CI value,[2]; [8],0.258
same,Fa value,[2]; [8],0.5015
same,CI value,[2]; [9],0.189
same,Fa value,[2]; [9],0.7685
same,CI value,[2]; [10],0.331
same,Fa value,[2]; [10],0.4315
same,CI value,[2]; [11],0.191
same,Fa value,[2]; [11],0.7784
same,CI value,[2]; [12],0.174
same,Fa value,[2]; [12],0.8915
same,CI value,[3]; [13],0.579
same,Fa value,[3]; [13],0.3644
same,CI value,[3]; [14],0.413
same,Fa value,[3]; [14],0.6946
same,CI value,[3]; [15],0.525
same,Fa value,[3]; [15],0.7564
same,CI value,[3]; [16],0.886
same,Fa value,[3]; [16],0.2455
same,CI value,[3]; [17],0.452
same,Fa value,[3]; [17],0.6771
same,CI value,[3]; [18],0.514
same,Fa value,[3]; [18],0.7725
same,CI value,[3]; [19],0.735
same,Fa value,[3]; [19],0.3163
same,CI value,[3]; [20],0.558
same,Fa value,[3]; [20],0.6872
same,CI value,[3]; [21],0.645
same,Fa value,[3]; [21],0.3469
same,CI value,[3]; [22],0.344
same,Fa value,[3]; [22],0.6687
same,CI value,[3]; [23],0.372
same,Fa value,[3]; [23],0.7578
same,CI value,[4]; [24],0.289
same,Fa value,[4]; [24],0.7563
same,CI value,[4]; [25],0.180
same,Fa value,[4]; [25],0.9499
same,CI value,[4]; [26],0.535
same,Fa value,[4]; [26],0.3054
same,CI value,[4]; [27],0.208
same,Fa value,[4]; [27],0.8469
same,CI value,[4]; [28],0.174
same,Fa value,[4]; [28],0.9453
same,CI value,[4]; [29],0.792
same,Fa value,[4]; [29],0.1703
same,CI value,[4]; [30],0.230
same,Fa value,[4]; [30],0.8191
same,CI value,[4]; [31],0.173
same,Fa value,[4]; [31],0.9441
same,CI value,[4]; [32],0.557
same,Fa value,[4]; [32],0.3131
same,CI value,[4]; [33],0.224
same,Fa value,[4]; [33],0.8595
same,CI value,[4]; [34],0.197
same,Fa value,[4]; [34],0.9459
